Results on 10 substances are retold here after patent US20220289816A1, “IMMUNOTHERAPY WITH B*07 RESTRICTED PEPTIDES AND COMBINATION OF PEPTIDES AGAINST CANCERS AND RELATED METHODS” (Immatics Biotechnologies GmbH, priority 2018, published 2022).

In experiment [1] the test system is CD8+ T cells. The experiment is described as follows: In vitro immunogenicity: in vitro T-cell priming assay with aAPCs loaded with peptide/MHC complexes and anti-CD28 antibody, pMHC multimer readout. Format: cell-based, human. As to conditions: Table 10b, pMHC multimer readout after priming of CD8+ T cells. From the text:
In order to obtain information regarding the immunogenicity of the TUMAPs of the present invention, the inventors performed investigations using an in vitro T-cell priming assay based on repeated stimulations of CD8+ T cells with artificial antigen presenting cells (aAPCs) loaded with peptide/MHC complexes and anti-CD28 antibody.
In order to perform in vitro stimulations by artificial antigen presenting cells loaded with peptide-MHC complex (pMHC) and anti-CD28 antibody, the inventors first isolated CD8+ T cells from fresh HLA-B*07 leukapheresis products via positive selection using CD8 microbeads (Miltenyi Biotec, Bergisch-Gladbach, Germany) of healthy donors obtained from the University clinics Mannheim, Germany, after informed consent.
PBMCs and isolated CD8+ lymphocytes were incubated in T-cell medium (TCM) until use consisting of RPMI-Glutamax (Invitrogen, Karlsruhe, Germany) supplemented with 10% heat inactivated human AB serum (PAN-Biotech, Aidenbach, Germany), 100 U/ml Penicillin/100 μg/ml Streptomycin (Cambrex, Cologne, Germany), 1 mM sodium pyruvate (CC Pro, Oberdorla, Germany), 20 μg/ml Gentamycin (Cambrex). 2.5 ng/ml IL-7 (PromoCell, Heidelberg, Germany) and 10 U/ml IL-2 (Novartis Pharma, Nürnberg, Germany) were also added to the TCM at this step.
Generation of pMHC/anti-CD28 coated beads, T-cell stimulations and readout was performed in a highly defined in vitro system using four different pMHC molecules per stimulation condition and 8 different pMHC molecules per readout condition.
The purified co-stimulatory mouse IgG2a anti human CD28 Ab 9.3 (Jung et al., 1987) was chemically biotinylated using Sulfo-N-hydroxysuccinimidobiotin as recommended by the manufacturer (Perbio, Bonn, Germany). Beads used were 5.6 μm diameter streptavidin coated polystyrene particles (Bangs Laboratories, Illinois, USA).
800.000 beads/200 μl were coated in 96-well plates in the presence of 4×12.5 ng different biotin-pMHC, washed and 600 ng biotin anti-CD28 were added subsequently in a volume of 200 μl. Stimulations were initiated in 96-well plates by co-incubating 1×10^6 CD8+ T cells with 2×10^5 washed coated beads in 200 μl TCM supplemented with 5 ng/ml IL-12 (PromoCell) for 3 days at 37° C. Half of the medium was then exchanged by fresh TCM supplemented with 80 U/ml IL-2 and incubating was continued for four days at 37° C. This stimulation cycle was performed for a total of three times. For the pMHC multimer readout using 8 different pMHC molecules per condition, a two-dimensional combinatorial coding approach was used as previously described (Andersen et al., 2012) with minor modifications encompassing coupling to five different fluorochromes. Finally, multimeric analyses were performed by staining the cells with Live/dead near IR dye (Invitrogen, Karlsruhe, Germany), CD8-FITC antibody clone SK1 (BD, Heidelberg, Germany) and fluorescent pMHC multimers. For analysis, a BD LSRII SORP cytometer equipped with appropriate lasers and filters was used. Peptide specific cells were calculated as percentage of total CD8+ cells. Evaluation of multimeric analysis was done using the FlowJo software (Tree Star, Oregon, USA). In vitro priming of specific multimer+CD8+ lymphocytes was detected by comparing to negative control stimulations.

Experiment [2] deals with HLA-B*07 (Homo sapiens, UniProt P01889). The experiment is described as follows: MHC binding assay (UV-ligand exchange, ELISA of stabilized MHC complexes). As to conditions: peptide exchange yield on HLA-B*07, UV-ligand exchange. The procedure, abridged:
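Binding is reported as exchange yield: an ELISA with HRP-conjugated anti-β2m (A450, TMB) quantified how much test peptide stabilized MHC after UV cleavage of a photolabile placeholder peptide. Exchange monomers were diluted 100-fold and captured on streptavidin-coated plates for 1 h at 37 °C.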

Regarding “53 (SPRIPFSTF; listed as Homo sapiens) [compound 53]”, the “Wells positive [%]” value in experiment [1] is “+ (<20% = +)”. In addition, in experiment [2], the Peptide exchange result is “++++ (>75% = ++++)”.

Consider “56 (LPALLRSGLTL; listed as Homo sapiens) [compound 56]”, for which the “Wells positive [%]” value in experiment [1] is on record as “+++ (50%-69% = +++)”. Besides, in experiment [2], the Peptide exchange result was “++++ (>75% = ++++)”.

Turning to “59 (KPRTIYSSL; listed as Homo sapiens) [compound 59]”, the “Wells positive [%]” value in experiment [1] is recorded as “+ (<20% = +)”. In addition, the Peptide exchange entry in experiment [2] is recorded as “++++ (>75% = ++++)”.

“61 (LPRIPFSTF; listed as Homo sapiens) [compound 61]”: the “Wells positive [%]” value in experiment [1] was “++ (20%-49% = ++)”. Besides, the Peptide exchange entry in experiment [2] was “++++ (>75% = ++++)”.

As for “64 (VPRPIFSQLYL; listed as Homo sapiens) [compound 64]”, the “Wells positive [%]” value in experiment [1] is given as “+++ (50%-69% = +++)”. Further, the Peptide exchange result in experiment [2] was “++++ (>75% = ++++)”.

For the substance “68 (FPNEVSVVL; listed as Homo sapiens) [compound 68]”, the “Wells positive [%]” value in experiment [1] is reported as “++ (20%-49% = ++)”. In experiment [2], the Peptide exchange result is “++++ (>75% = ++++)”.

Turning to “361 (SPYGSDRLVQL; listed as Homo sapiens) [compound 361]”, the “Wells positive [%]” value in experiment [1] was “+ (<20% = +)”. In addition, the Peptide exchange entry in experiment [2] is given as “++++ (>75% = ++++)”.

“364 (KPRTPFTTAQL; listed as Homo sapiens) [compound 364]”: the “Wells positive [%]” value in experiment [1] is reported as “+ (<20% = +)”. Further, in experiment [2], the Peptide exchange result is listed as “++++ (>75% = ++++)”.

Regarding “365 (RPKHFLQML; listed as Homo sapiens) [compound 365]”, the “Wells positive [%]” value in experiment [1] is given as “+ (<20% = +)”. For the same substance, the Peptide exchange result in experiment [2] is recorded as “++++ (>75% = ++++)”.

As for “366 (SPTLRQLDL; listed as Homo sapiens) [compound 366]”, the “Wells positive [%]” value in experiment [1] is on record as “++ (20%-49% = ++)”. The Peptide exchange result in experiment [2] is reported as “++++ (>75% = ++++)”.
